{"source": "patent US6635641B2", "about": "(Agouron Pharmaceuticals, Inc., priority 2000, dated 2003)", "key": {"[1]": {"biological_target": "T1, unphosphorylated VEGF-R2Δ50 (FLVK) (Homo sapiens, UniProt P35968, DEL940-989/E990V)", "T1 construct": "VEGF-R2Δ50 contains residues 806-939 and 990-1171; made in house; host or cells: baculovirus/insect cells", "T1 sequence (P35968 with tags, fused parts or gaps DEL940-989/E990V limits assumed)": "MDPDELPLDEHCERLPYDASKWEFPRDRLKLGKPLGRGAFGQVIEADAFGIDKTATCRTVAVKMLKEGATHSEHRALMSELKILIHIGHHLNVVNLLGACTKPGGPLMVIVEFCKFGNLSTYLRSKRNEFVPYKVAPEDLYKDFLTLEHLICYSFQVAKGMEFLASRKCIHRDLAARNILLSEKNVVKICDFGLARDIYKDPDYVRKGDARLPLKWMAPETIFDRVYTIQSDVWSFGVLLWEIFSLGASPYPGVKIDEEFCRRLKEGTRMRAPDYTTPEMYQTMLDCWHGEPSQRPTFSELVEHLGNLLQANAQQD", "test": "VEGF-R2 coupled spectrophotometric assay, unphosphorylated construct (FLVK);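 as to all read-outs here: Baculovirus-expressed cytosolic kinase domain, ADP formation linked via pyruvate kinase and lactate dehydrogenase to NADH oxidation, read as falling absorbance at 340 nm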", "type": "biochemical", "conditions": "for FLVK percent inhibition: 0.05 µM; for inhibition at 0.05 µM: @ 50 nM, read-out: FLVK percent inhibition"}, "[2]": {"system": "human umbilical vein endothelial cells (HUVEC)", "test": "HUVEC proliferation assay (VEGF-stimulated, MTT)", "type": "cell-based", "conditions": "Homo sapiens, HUVEC; read-out: HUVEC IC50", "protocol": "This assay determines the ability of a test compound to inhibit the growth factor-stimulated proliferation of human umbilical vein endothelial cells (“HUVEC”). HUVEC cells (passage 3-4, Clonetics, Corp.) were thawed into EGM2 culture medium (Clonetics Corp) in T75 flasks. Fresh EGM2 medium was added to the flasks 24 hours later. Four or five days later, cells were exposed to another culture medium (F12K medium supplemented with 10% fetal bovine serum (FBS), 60 μg/ml endothelial cell growth supplement (ECGS), and 0.1 mg/ml heparin). Exponentially-growing HUVEC cells were used in experiments thereafter. Ten to twelve thousand HUVEC cells were plated in 96-well dishes in 100 μl of rich, culture medium (described above). The cells were allowed to attach for 24 hours in this medium. The medium was then removed by aspiration and 105 μl of starvation media (F12K+1% FBS) was added to each well. After 24 hours, 15 μl of test agent dissolved in 1% DMSO in starvation medium or this vehicle alone was added into each treatment well; the final DMSO concentration was 0.1%. One hour later, 30 μl of VEGF (30 ng/ml) in starvation media was added to all wells except those containing untreated controls; the final VEGF concentration was 6 ng/ml. Cellular proliferation was quantified 72 hours later by MTT dye reduction, at which time cells were exposed for 4 hours MTT (Promega Corp.). Dye reduction was stopped by addition of a stop solution (Promega Corp.) and absorbance at 595 λ was determined on a 96-well spectrophotometer plate reader."}, "[3]": {"biological_target": "T2, phosphorylated VEGF-R2Δ50 (FLVK-P) (Homo sapiens, UniProt P35968, DEL940-989/E990V)", "T2 construct": "VEGF-R2Δ50 contains residues 806-939 and 990-1171; made in house; host or cells: baculovirus/insect cells", "T2 sequence (P35968 with tags, fused parts or gaps DEL940-989/E990V limits assumed)": "as above", "test": "VEGF-R2 coupled spectrophotometric assay, phosphorylated construct (FLVK-P)", "type": "biochemical", "text": "A construct (VEGF-R2Δ50) of the cytosolic domain of human vascular endothelial growth factor receptor 2 (VEGF-R2) lacking the 50 central residues of the 68 residues of the kinase insert domain was expressed in a baculovirus/insect cell system. Of the 1356 residues of full-length VEGF-R2, VEGF-R2Δ50 contains residues 806-939 and 990-1171, and also one point mutation (E990V) within the kinase insert domain relative to wild-type VEGF-R2. See commonly assigned, co-pending U.S. patent application Ser. No. 09/390,326, filed Sep. 7, 1999, incorporated by reference herein, for discussion of VEGF constructs and expression systems. Autophosphorylation of the purified construct was performed by incubation of the enzyme at a concentration of 4 μM in the presence of 3 mM ATP and 40 mM MgCl2 in 100 mM Hepes, pH 7.5, containing 5% glycerol and 5 mM DTT, at 4° C. for 2 h. […] See Parast et al., Biochemistry, 37, 16788-16801 (1998).\nThe production of ADP from ATP that accompanies phosphoryl transfer was coupled to oxidation of NADH using phosphoenolpyruvate (PEP) and a system having pyruvate kinase (PK) and lactic dehydrogenase (LDH). The oxidation of NADH was monitored by following the decrease of absorbance at 340 nm (e340=6.22 cm^−1 mM^−1) using a Beckman DU 650 spectrophotometer. Assay conditions for phosphorylated VEGF-R2Δ50 (indicated as FLVK-P in the tables below) were the following: 1 mM PEP; 250 μM NADH; 50 units of LDH/mL; 20 units of PK/mL; 5 mM DTT; 5.1 mM poly(E4Y1); 1 mM ATP; and 25 mM MgCl2 in 200 mM Hepes, pH 7.5. Assay conditions for unphosphorylated VEGF-R2Δ50 (indicated as FLVK in the tables) were the following: 1 mM PEP; 250 μM NADH; 50 units of LDH/mL; 20 units of PK/mL; 5 mM DTT; 20 mM poly(E4Y1); 3 mM ATP; and 60 mM MgCl2 and 2 mM MnCl2 in 200 mM Hepes, pH 7.5. Assays were initiated with 5 to 40 nM of enzyme. Ki values were determined by measuring enzyme activity in the presence of varying concentrations of test compounds. The data were analyzed using Enzyme Kinetic and Kaleidagraph software."}}, "note": "Structures can show the parent of a compound that is named as a salt. Where two headings read alike, the source gives them in different places."}
{"compound": "5-{2-[3-(Piperazin-1-yl-trifluoromethyl-phenylcarbamoyl)-phenyl]-ethyl}nicotinic acid methyl ester dihydrochloride [CC-2]", "values": [{"measurement": "FLVK percent inhibition", "setting": "[1]", "value": 30, "unit": "% @"}]}
{"compound": "CCC(C(=O)Nc1cccc(CSc2ncnc3[nH]ncc23)c1)c1ccccc1C", "note": "(racemic) [Example V-15]", "values": [{"measurement": "inhibition at 0.05 µM", "setting": "[1]", "value": 30, "unit": "%"}]}
{"compound": "Cl.Cl.NC(=O)c1cncc(CCc2cccc(C(=O)Nc3ccc(N4CCNCC4)c(C(F)(F)F)c3)c2)c1", "note": "[CC-1, 5-{2-[3-(Piperazin-1-yl-trifluoromethyl-phenylcarbamoyl)-phenyl]-ethyl}-nicotinamide dihydrochloride]", "values": [{"measurement": "FLVK percent inhibition", "setting": "[1]", "value": 20, "unit": "% @"}]}
{"compound": "CC(C)c1cccc(NC(=O)c2cccc(CSc3cnccn3)c2)c1", "note": "[Example A-7, N-(3-Isopropylphenyl)-3-[(pyrazin-2-yl)sulfanylmethyl]benzamide]", "values": [{"measurement": "IC50", "setting": "[2]", "value": "> 700", "unit": "nM"}, {"measurement": "Ki", "setting": "[3]", "value": 26, "unit": "nM"}]}
{"compound": "COc1ccc(Nc2cc(CCc3cccc(C(=O)Nc4ccc(N5CCN(C(=O)OC(C)(C)C)CC5)c(C(F)(F)F)c4)c3)[nH]n2)cn1", "note": "[Example G-9, 3-{2-[5-(6-Methoxypyridin-3-yl)amino-2H-pyrazol-3-yl]-ethyl}-N-[4-(4-t-butoxycarbonylpiperazin-1-yl)-3-trifluoromethylphenyl]benzamide]", "values": [{"measurement": "Ki", "setting": "[1]", "value": 2.5, "unit": "nM"}]}
{"compound": "O=C(Nc1cccc2c1OC(F)(F)O2)c1cccc(CCc2cncc3ccccc23)c1", "note": "[Example O-2, N-(2,2-Difluoro-benzo[1,3]dioxol-4-yl)-3-(2-isoquinolin-4-yl-ethyl)-benzamide trifluoro-acetic acid salt]", "values": [{"measurement": "inhibition at 0.05 µM", "setting": "[1]", "value": 13, "unit": "%"}]}
{"compound": "CC1CCc2cc(NC(=O)c3ccc(F)c(OCc4cncc5ccccc45)c3)ccc2N1", "note": "(stereo not shown) [Example O-3, 4-Fluoro-N-(2-methyl-1,2,3,4-tetrahydroquinolin-6-yl)-3-(isoquinolin-4-yl-methoxy)-benzamide bistrifluoroacetic acid salt]", "values": [{"measurement": "Ki", "setting": "[1]", "value": 5.8, "unit": "nM"}]}
{"compound": "O=C(Nc1ccc(-n2ccnc2)c(C(F)(F)F)c1)c1ccc(F)c(OCc2cccnc2)c1", "note": "[Example R-21, 4-Fluoro-N-(4-imidazol-1-yl-3-trifluoromethyl-phenyl)-3-(pyridin-3-ylmethoxy)-benzamide]", "values": [{"measurement": "inhibition at 0.05 µM", "setting": "[1]", "value": 42, "unit": "%"}]}
{"compound": "O=C(Nc1ccc(-n2cncn2)c(C(F)(F)F)c1)c1ccc(F)c(OCc2cccnc2)c1", "note": "[Example R-23, 4-Fluoro-3-(pyridin-3-ylmethoxy)-N-(4-[1,2,4]triazol-1-yl-3-trifluoromethyl-phenyl)-benzamide]", "values": [{"measurement": "inhibition at 0.05 µM", "setting": "[1]", "value": 50, "unit": "%"}]}
{"compound": "O=C(Nc1cc(Cl)c(-n2ccnc2)c(Cl)c1)c1ccc(F)c(OCc2cccnc2)c1", "note": "[Example R-24, N-(3,5-Dichloro-4-imidazol-1-yl-phenyl)-4-fluoro-3-(pyridin-3-ylmethoxy)-benzamide]", "values": [{"measurement": "inhibition at 0.05 µM", "setting": "[1]", "value": 62, "unit": "%"}]}
{"compound": "Cc1ccc2cc(NC(=O)c3cccc(CCc4cncc5ccccc45)c3)ccc2n1", "note": "[Example S-4, 3-(2-Isoquinolin-4-yl-ethyl)-N-(2-methyl-quinolin-6-yl)-benzamide]", "values": [{"measurement": "IC50", "setting": "[2]", "value": "> 300", "unit": "nM"}, {"measurement": "inhibition at 0.05 µM", "setting": "[3]; @ 50 nM, read-out: FLVK-P percent inhibition", "value": 20, "unit": "%"}]}
{"compound": "Cc1c(Br)cc(NC(=O)c2cccc(CCc3cncc4ccccc34)c2)cc1Br", "note": "[Example S-5, N-(3,5-Dibromo-4-methyl-phenyl)-3-(2-isoquinolin-4-yl-ethyl)-benzamide]", "values": [{"measurement": "IC50", "setting": "[2]", "value": "> 300", "unit": "nM"}, {"measurement": "Ki", "setting": "[3]", "value": 4.2, "unit": "nM"}]}
{"compound": "Cc1cc(NC(=O)c2cc(CCc3cncc4ccccc34)c(F)cc2F)ccc1C(C)C", "note": "[Example S-8, 2,4-Difluoro-N-(4-isopropyl-3-methyl-phenyl)-5-(2-isoquinolin-4-yl-ethyl)-benzamide]", "values": [{"measurement": "Ki", "setting": "[1]", "value": 1.4, "unit": "nM"}]}
{"compound": "Cc1ccc(C(=O)Nc2cccc(CSc3ncnc4[nH]ncc34)c2)cc1Br", "note": "[Example V-1]", "values": [{"measurement": "Ki", "setting": "[1]", "value": 2, "unit": "nM"}]}
{"compound": "CC(C)(C)c1ccc(C(=O)Nc2cccc(CSc3ncnc4[nH]ncc34)c2)cc1", "note": "[Example V-5, N-{3-[(1H-pyrazolo[3,4-d]-pyrimidin-4-yl)sulfanylmethyl]phenyl}-4-t-butylbenzamide]", "values": [{"measurement": "Ki", "setting": "[1]; unphosphorylated VEGF-R2 construct", "value": 1.4, "unit": "nM"}]}
{"compound": "O=C(Nc1cccc(CSc2ncnc3[nH]ncc23)c1)c1ccc(Oc2ccccc2)cc1", "note": "[Example V-6, N-{3-[(1H-pyrazolo[3,4-d]-pyrimidin-4-yl)sulfanylmethyl]phenyl}-(4-phenoxy)benzamide]", "values": [{"measurement": "inhibition at 0.05 µM", "setting": "[1]", "value": 12, "unit": "%"}]}
